# Test results published in patent US20100048950A1 (BOEHRINGER INGELHEIM INTERNATIONAL GMBH, priority 2007, published 2010).
# Target: T1, human glucocorticoid receptor (GR) complex (Homo sapiens, UniProt P04150)
# T1 construct: made in house; host or cells: insect expression system (baculovirus lysate)
# T1 sequence (P04150 1-777): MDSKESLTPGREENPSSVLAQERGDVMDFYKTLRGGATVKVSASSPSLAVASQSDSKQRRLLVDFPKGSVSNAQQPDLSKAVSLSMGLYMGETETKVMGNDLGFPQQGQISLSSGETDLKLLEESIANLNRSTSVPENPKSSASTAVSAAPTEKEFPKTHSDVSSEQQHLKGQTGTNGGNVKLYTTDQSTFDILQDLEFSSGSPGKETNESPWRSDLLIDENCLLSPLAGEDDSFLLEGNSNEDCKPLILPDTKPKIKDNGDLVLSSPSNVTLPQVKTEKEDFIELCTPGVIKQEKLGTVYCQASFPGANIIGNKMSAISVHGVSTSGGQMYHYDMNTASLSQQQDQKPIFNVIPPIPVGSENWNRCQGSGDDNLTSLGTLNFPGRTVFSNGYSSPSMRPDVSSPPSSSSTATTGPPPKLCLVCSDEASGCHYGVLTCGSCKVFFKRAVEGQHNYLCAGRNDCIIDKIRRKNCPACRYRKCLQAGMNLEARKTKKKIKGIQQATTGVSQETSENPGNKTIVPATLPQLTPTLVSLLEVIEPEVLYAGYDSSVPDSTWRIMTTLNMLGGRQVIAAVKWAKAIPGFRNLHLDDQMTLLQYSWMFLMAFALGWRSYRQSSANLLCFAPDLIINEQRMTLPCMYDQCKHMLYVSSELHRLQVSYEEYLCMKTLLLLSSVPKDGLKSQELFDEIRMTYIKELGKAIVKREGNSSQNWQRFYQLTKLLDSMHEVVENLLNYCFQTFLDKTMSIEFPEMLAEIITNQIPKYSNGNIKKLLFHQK
# Test: Glucocorticoid receptor competitive binding assay (fluorescence polarization)
# Conditions: competition with TAMRA-labeled dexamethasone, read-out: potent activity (IC50) in the GR binding assay
# Procedure: Compounds of the invention were evaluated for binding to the steroid receptor by a fluorescence polarization competitive binding assay. Detailed descriptions for preparation of recombinant glucocorticoid receptor (GR) complex used in the assay is described in U.S. Patent Application Publication No. US 2003/0017503, filed May 20, 2002, and incorporated herein by reference in its entirety. Preparation of the tetramethylrhodamine (TAMRA)-labeled dexamethasone probe was accomplished using a standard literature procedure (M. Pons et al., J. Steroid Biochem., 1985, 22, pp. 267-273).
# The affinity of the probe for the steroid receptor was then determined in a titration experiment. The fluorescence polarization value of the probe in assay buffer was measured on an SLM-8100 fluorometer using the excitation and emission maximum values described above. Aliquots of expression vector lysate were added and fluorescence polarization was measured after each addition until no further change in polarization value was observed. Non-linear least squares regression analysis was used to calculate the dissociation constant of the probe from the polarization values obtained for lysate binding to the probe.
# This assay uses fluorescence polarization (FP) to quantitate the ability of test compounds to compete with tetramethylrhodamine (TAMRA)-labeled dexamethasone for binding to a human glucocorticoid receptor (GR) complex prepared from an insect expression system. The assay buffer was: 10 mM TES, 50 mM KCl, 20 mM Na2MoO4.2H2O, 1.5 mM EDTA, 0.04% w/v CHAPS, 10% v/v glycerol, 1 mM dithiothreitol, pH 7.4. Test compounds were dissolved to 1 mM in neat DMSO and then further diluted to 10× assay concentration in assay buffer supplemented with 10% v/v DMSO. Test compounds were serially diluted at 10× assay concentrations in 10% DMSO-containing buffer in 96-well polypropylene plates. Binding reaction mixtures were prepared in 96-well black Dynex microtiter plates by sequential addition of the following assay components to each well: 15 μL of 10× test compound solution, 85 μL of GR-containing baculovirus lysate diluted 1:170 in assay buffer, and 50 μL of 15 nM TAMRA-labeled dexamethasone. Positive controls were reaction mixtures containing no test compound; negative controls (blanks) were reaction mixtures containing 0.7 μM to 2 μM dexamethasone. The binding reactions were incubated for 1 hour at room temperature and then read for fluorescence polarization in the LJL Analyst set to 550 nm excitation and 580 nm emission, with the Rhodamine 561 dichroic mirror installed. IC50 values were determined by iterative non-linear curve fitting of the FP signal data to a 4-parameter logistic equation.
row,SMILES,IC50 [nM]
1,"Cc1cc(C)cc(OCC(NS(=O)(=O)c2c(C)cc(C)cc2C)C(F)(F)F)c1 (centres unmarked) [N-[1-(3,5-Dimethylphenoxymethyl)-2,2,2-trifluoroethyl]-2,4,6-trimethylbenzenesulfonamide]",≤ 100
2,"Cc1cc(C)c(S(=O)(=O)NC(CNc2cccc(Cl)c2)C(F)(F)F)c(C)c1 (centres unmarked) [N-{1-[(3-Chlorophenylamino)methyl]-2,2,2-trifluoroethyl}-2,4,6-trimethylbenzenesulfonamide]",≤ 100
3,"Cc1cc(C)c(S(=O)(=O)NC(COc2cccc3c2CCCC3)C(F)(F)F)c(C)c1 (centres unmarked) [2,4,6-Trimethyl-N-[2,2,2-trifluoro-1-(5,6,7,8-tetrahydronaphthalen-1-yloxymethyl)ethyl]benzenesulfonamide]",≤ 100
4,"Cc1cc(C)c(S(=O)(=O)NC(CNc2c(F)cccc2F)C(F)(F)F)c(C)c1 (centres unmarked) [N-{1-[(2,6-Difluorophenylamino)methyl]-2,2,2-trifluoroethyl}-2,4,6-trimethylbenzenesulfonamide]",≤ 100
5,"Cc1cc(C)c(S(=O)(=O)NC(CSc2cccc(Cl)c2)C(F)(F)F)c(C)c1 (centres unmarked) [N-[1-(3-Chlorophenylsulfanylmethyl)-2,2,2-trifluoroethyl]-2,4,6-trimethylbenzenesulfonamide]",≤ 100
6,"Cc1cc(C)c(S(=O)(=O)NC(CSc2ccccc2C(C)C)C(F)(F)F)c(C)c1 (centres unmarked) [2,4,6-Trimethyl-N-[2,2,2-trifluoro-1-(2-isopropylphenylsulfanylmethyl)ethyl]benzenesulfonamide]",≤ 100
7,"COC(=O)c1ccccc1SCC(NS(=O)(=O)c1c(C)cc(C)cc1C)C(F)(F)F (centres unmarked) [2-[3,3,3-Trifluoro-2-(2,4,6-trimethylbenzenesulfonylamino)propylsulfanyl]benzoic acid methyl ester]",≤ 100
8,"Cc1cc(C)c(S(=O)(=O)NC(COc2cccc(C#N)c2)C(F)(F)F)c(C)c1 (centres unmarked) [N-[1-(3-Cyanophenoxymethyl)-2,2,2-trifluoroethyl]-2,4,6-trimethylbenzenesulfonamide]",≤ 100
9,"Cc1cc(C)c(S(=O)(=O)NC(CSc2ccccc2Br)C(F)(F)F)c(C)c1 (centres unmarked) [N-[1-(2-Bromophenylsulfanylmethyl)-2,2,2-trifluoroethyl]-2,4,6-trimethylbenzenesulfonamide]",≤ 100
10,"CC[C@@](C)(CN(CCC#N)c1cccc2ccccc12)NS(=O)(=O)c1c(C)cc(C)cc1C [N—((S)-1-{[(2-Cyanoethyl)naphthalen-1-ylamino]methyl}-1-methylpropyl)-2,4,6-trimethylbenzenesulfonamide]",≤ 100
11,"Cc1cc(C)c(S(=O)(=O)NC(COc2ccc(C(F)(F)F)cc2)C(F)(F)F)c(C)c1 (centres unmarked) [2,4,6-Trimethyl-N-[2,2,2-trifluoro-1-(4-trifluoromethylphenoxymethyl)ethyl]benzenesulfonamide]",≤ 100
12,"Cc1ccc(OCC(NS(=O)(=O)c2c(C)cc(C)cc2C)C(F)(F)F)c(C)c1 (centres unmarked) [N-[1-(2,4-Dimethylphenoxymethyl)-2,2,2-trifluoroethyl]-2,4,6-trimethylbenzenesulfonamide]",≤ 100
13,"CCc1ccccc1SCC(NS(=O)(=O)c1c(C)cc(C)cc1C)C(F)(F)F (centres unmarked) [N-[1-(2-Ethylphenylsulfanylmethyl)-2,2,2-trifluoroethyl]-2,4,6-trimethylbenzenesulfonamide]",≤ 100
14,Cc1cc(C)c(S(=O)(=O)NC(COc2ccc(Cl)cc2)C(F)(F)F)c(C)c1 (centres unmarked),≤ 100
15,"Cc1cc(C)c(S(=O)(=O)NC(COc2ccccc2C)C(F)(F)F)c(C)c1 (centres unmarked) [2,4,6-Trimethyl-N-(2,2,2-trifluoro-1-o-tolyloxymethylethyl)benzenesulfonamide]",≤ 100
16,"Cc1cc(C)c(S(=O)(=O)NC(CNc2cccc(C#N)c2)C(F)(F)F)c(C)c1 (centres unmarked) [N-{1-[(3-Cyanophenylamino)methyl]-2,2,2-trifluoroethyl}-2,4,6-trimethylbenzenesulfonamide]",≤ 100
17,"Cc1cc(C)c(S(=O)(=O)NC(CSc2ccc(Cl)cc2Cl)C(F)(F)F)c(C)c1 (centres unmarked) [N-[1-(2,4-Dichlorophenylsulfanylmethyl)-2,2,2-trifluoroethyl]-2,4,6-trimethylbenzenesulfonamide]",≤ 100
18,"COc1cc(NCC(NS(=O)(=O)c2c(C)cc(C)cc2C)C(F)(F)F)cc(C(F)(F)F)c1 (centres unmarked) [2,4,6-Trimethyl-N-{2,2,2-trifluoro-1-[(3-methoxy-5-trifluoromethylphenylamino)methyl]ethyl}benzenesulfonamide]",≤ 100
19,"CCOC(=O)c1ccc(OCC(NS(=O)(=O)c2c(C)cc(C)cc2C)C(F)(F)F)c(OC)c1 (centres unmarked) [3-Methoxy-4-[3,3,3-trifluoro-2-(2,4,6-trimethylbenzenesulfonylamino)propoxy]benzoic acid ethyl ester]",≤ 100
20,"Cc1cc(C)c(S(=O)(=O)NC(CNc2cccc(-c3cnco3)c2)C(F)(F)F)c(C)c1 (centres unmarked) [2,4,6-Trimethyl-N-{2,2,2-trifluoro-1-[(3-oxazol-5-ylphenylamino)methyl]ethyl}benzenesulfonamide]",≤ 100
21,"Cc1cc(C)c(S(=O)(=O)NC(CSc2ccc(F)cc2)C(F)(F)F)c(C)c1 (centres unmarked) [2,4,6-Trimethyl-N-[2,2,2-trifluoro-1-(4-fluorophenylsulfanylmethyl)ethyl]benzenesulfonamide]",≤ 100
22,"COc1ccc(N(Cc2ccccc2)CC(NS(=O)(=O)c2c(C)cc(C)cc2C)C(F)(F)F)cc1 (centres unmarked) [N-(1-{[Benzyl-(4-methoxyphenyl)amino]methyl}-2,2,2-trifluoroethyl)-2,4,6-trimethylbenzenesulfonamide]",≤ 100
23,"Cc1cc(C)cc(SCC(NS(=O)(=O)c2c(C)cc(C)cc2C)C(F)(F)F)c1 (centres unmarked) [N-[1-(3,5-Dimethylphenylsulfanylmethyl)-2,2,2-trifluoroethyl]-2,4,6-trimethylbenzenesulfonamide]",≤ 100
24,"Cc1cc(C)c(S(=O)(=O)NC(CNc2ccccc2Cl)C(F)(F)F)c(C)c1 (centres unmarked) [N-{1-[(2-Chlorophenylamino)methyl]-2,2,2-trifluoroethyl}-2,4,6-trimethylbenzenesulfonamide]",≤ 100
25,"Cc1cc(C)c(S(=O)(=O)NC(COc2cccc3c2CCCC3=O)C(F)(F)F)c(C)c1 (centres unmarked) [2,4,6-Trimethyl-N-[2,2,2-trifluoro-1-(5-oxo-5,6,7,8-tetrahydronaphthalen-1-yloxymethyl)ethyl]benzenesulfonamide]",≤ 100
26,"COc1ccc(NCC(NS(=O)(=O)c2c(C)cc(C)cc2C)C(F)(F)F)c(C)c1 (centres unmarked) [2,4,6-Trimethyl-N-{2,2,2-trifluoro-1-[(4-methoxy-2-methylphenylamino)methyl]ethyl}benzenesulfonamide]",≤ 100
27,"Cc1cc(C)cc(NCC(NS(=O)(=O)c2c(C)cc(C)cc2C)C(F)(F)F)c1 (centres unmarked) [N-{1-[(3,5-Dimethylphenylamnino)methyl]-2,2,2-trifluoroethyl}-2,4,6-trimethyl-benzenesulfonamide]",≤ 100
28,"Cc1cc(C)c(S(=O)(=O)NC(CNc2ccccc2OC(F)(F)F)C(F)(F)F)c(C)c1 (centres unmarked) [2,4,6-Trimethyl-N-{2,2,2-trifluoro-1-[(2-trifluoromethoxyphenylamino)methyl]ethyl}benzenesulfonamide]",≤ 100
29,"Cc1cc(C)c(S(=O)(=O)NC(COc2cc(C)ccc2Cl)C(F)(F)F)c(C)c1 (centres unmarked) [N-[1-(2-Chloro-5-methylphenoxymethyl)-2,2,2-trifluoroethyl]-2,4,6-trimethylbenzenesulfonamide]",≤ 100
